# Data from patent US8648079B2, “Heterocyclic compounds” (Takeda Pharmaceutical Company Limited, priority 2011, dated 2014).
# Tests used:
# human CH24H = biological target: T1, human CH24H (Homo sapiens, UniProt Q9Y6A2); experiment: Measurement of CH24H inhibitory activity (24-HC produced from [14C] cholesterol by human CH24H lysate); type: biochemical; details: 1 μM test compound, [14C] cholesterol 15 μM, 37° C., 5 hr, read-out: Inhibitory rate (%) at 1 μM
# T1 construct: Using Full-Length Mammalian Gene Collection No. 4819975 (Invitrogen) as a template; made in house; host or cells: FreeStyle 293-F cells (transient transfection with pcDNA3.1(+)/hCH24H); crude lysate supernatant
# Protocol: The expression of human CH24H was performed using FreeStyle 293 Expression System (Invitrogen). According to the manual attached to FreeStyle 293 Expression System and using the plasmid DNA (pcDNA3.1(+)/hCH24H) for human CH24H expression constructed in Experimental Example 1, a transient expression using FreeStyle 293-F cell was performed. After transfection, the cells were cultured with shaking at 37° C., 8% CO2, 125 rpm for 2 days. The cells were collected by centrifugation, and suspended in a buffer for suspension (100 mM potassium phosphate (pH 7.4), 0.1 mM EDTA, 1 mM DTT, 20% Glycerol). The suspended product was disrupted by a polytron homogenizer (manufactured by Kinematica), and centrifuged at 9000×g for 10 min, and the supernatant was collected. The collected supernatant was cryopreserved (−80° C.) as a human CH24H lysate standard product.
# For the measurement of CH24H inhibitory activity, using the human CH24H lysate prepared in Experimental Example 2, the amount of 24-HC produced from cholesterol by catalysis of CH24H was measured in the presence of a test compound, and the amount was compared with that in the absence of the test compound. That is, a test compound solution at various concentrations were mixed with a reaction buffer (50 mM potassium phosphate containing 0.1% BSA and Complete, EDTA-free protease inhibitor cocktail, pH 7.4) and human CH24H lysate. Then, [^14C] cholesterol (53 mCi/mmol specific activity, 15 μM) was added, and CH24H reaction was performed at 37° C. for 5 hr. After completion of the reaction, a quenching solution consisting of chloroform/methanol/distillation water (2:2:1 v/v) was added, and the resulting 24-HC was extracted by shaking. The extract was applied to silica gel thin layer chromatography (ethyl acetate:toluene=4:6), and the obtained ^14C-24HC fraction was measured with BAS2500 (Fujifilm Corporation).
# The inhibitory rate (%) was calculated from the ratio of radioactivity in the presence of a test compound relative to the radioactivity in the absence of the test compound.
# [1] = tested on: APP/PS1 double transgenic mouse; experiment: Y-maze test using APP/PS1 double transgenic mouse (spontaneous alternation behavior); type: in vivo; details: Y-maze at 16 hours after the 13th administration
# Protocol: Animals used were 3-month-old female APP/PS1 double transgenic mice (10-15 mice/group). A test compound was suspended in a 0.5% aqueous methylcellulose [133-14255 WAKO] solution (1 mg/mL). The body weight of the mice was measured, and the solution was forcibly administered orally and repeatedly once a day for 14 days. At 16 hours after the 13th administration, spontaneous alternation behavior in Y-maze test was evaluated. Using a particular arm of a Y-shaped test apparatus as the starting point, the frequency of moving to a different arm was counted for 5 min. The first two times of entry were excluded from the total number of entry. In addition, the mice that entered less than 10 times in total were excluded. Movement to an arm different from the arm into which the mouse entered last but one was considered an alternation behavior, and the ratio to the total number of moving was calculated as a spontaneous alternation behavior rate. As comparison subjects, a control group (test compound-non treatment group) and a control group in wild-type mice were used.
# T1 sequence (Q9Y6A2 whole entry): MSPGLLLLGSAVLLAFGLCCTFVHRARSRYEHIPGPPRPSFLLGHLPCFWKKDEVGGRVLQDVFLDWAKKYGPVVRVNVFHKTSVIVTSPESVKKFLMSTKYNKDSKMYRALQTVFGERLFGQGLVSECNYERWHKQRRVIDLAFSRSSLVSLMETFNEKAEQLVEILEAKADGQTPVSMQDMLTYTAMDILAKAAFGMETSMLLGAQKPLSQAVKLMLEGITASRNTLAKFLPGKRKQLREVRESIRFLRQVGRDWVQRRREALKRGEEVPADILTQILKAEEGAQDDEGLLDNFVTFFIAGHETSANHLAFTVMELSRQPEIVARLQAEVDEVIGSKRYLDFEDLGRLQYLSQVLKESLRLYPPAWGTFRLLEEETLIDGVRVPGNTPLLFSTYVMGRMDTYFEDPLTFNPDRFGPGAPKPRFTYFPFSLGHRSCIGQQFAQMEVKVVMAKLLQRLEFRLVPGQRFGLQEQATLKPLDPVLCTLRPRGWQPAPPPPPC
Structure (SMILES),inhibition at 1 µM (human CH24H) [%],Spontaneous alternation behavior rate (%) ([1]; 10 mg/kg orally once a day),Spontaneous alternation behavior rate (%) ([1]; 30 mg/kg orally once a day)
"O=C(c1cccnc1-c1ccncc1)N1CCC(O)(Cc2ccc(F)c(F)c2)CC1 [Example 86, 2,4′-bipyridin-3-yl(4-(3,4-difluorobenzyl)-4-hydroxypiperidin-1-yl)methanone]",89,,
"O=C(c1cccnc1-c1ccncc1)N1CCC(O)(Cc2ccccc2)CC1 [Example 44, (4-benzyl-4-hydroxypiperidin-1-yl)(2,4′-bipyridin-3-yl)methanone]",95,71,71
"O=C(c1ncsc1-c1ccncc1)N1CCC(O)(Cc2ccccc2)CC1 [Example 25, (4-benzyl-4-hydroxypiperidin-1-yl)(5-(pyridin-4-yl)-1,3-thiazol-4 yl)methanone]",94,,
"Cc1ccc(-c2ccncc2)c(C(=O)N2CCC(O)(Cc3ccccc3)CC2)c1 [Example 1, (4-benzyl-4-hydroxypiperidin-1-yl)(5-methyl-2-(pyridin-4-yl)phenyl)methanone]",92,,
"O=C(c1cccnc1-c1ccncn1)N1CCC(O)(Cc2ccccc2)CC1 [Example 54, (4-benzyl-4-hydroxypiperidin-1-yl)(2-(pyrimidin-4-yl)pyridin-3-yl)methanone]",90,,
"O=C(c1ccc(F)cc1-c1ccncc1)N1CCC(O)(Cc2ccccn2)CC1 [Example 30, (4-fluoro-2-(pyridin-4-yl)phenyl)(4-hydroxy-4-(pyridin-2-ylmethyl)piperidin-1-yl)methanone]",91,,
"Cc1nc(-c2ccncn2)c(C(=O)N2CCC(O)(Cc3ccccc3)CC2)s1 [Example 60, (4-benzyl-4-hydroxypiperidin-1-yl)(2-methyl-4-(pyrimidin-4-yl)-1,3-thiazol-5-yl)methanone]",82,,
"O=C(c1c(-c2ccncc2)ccc2c1OCO2)N1CCC(O)(Cc2ccccc2)CC1 [Example 9, (4-benzyl-4-hydroxypiperidin-1-yl)(5-(pyridin-4-yl)-1,3-benzodioxol-4-yl)methanone]",87,,
"COc1ccc(CC2(O)CCN(C(=O)c3cccnc3-c3ccncc3)CC2)cc1 [Example 97, 2,4′-bipyridin-3-yl(4-hydroxy-4-(4-methoxybenzyl)piperidin-1-yl)methanone]",87,,
"O=C(c1ccccc1-c1ccncn1)N1CCC(O)(Cc2ccccc2)CC1 [Example 14, (4-benzyl-4-hydroxypiperidin-1-yl)(2-(pyrimidin-4-yl)phenyl)methanone]",92,,
"N#Cc1ccc(CC2(O)CCN(C(=O)c3cccnc3-c3ccncc3)CC2)cc1 [Example 70, 4-((1-(2,4′-bipyridin-3-ylcarbonyl)-4-hydroxypiperidin-4-yl)methyl)benzonitrile]",89,,
"O=C(c1cccnc1-c1ccncc1)N1CCC(O)(Cc2ccc(F)cc2)CC1 [Example 67, 2,4′-bipyridin-3-yl(4-(4-fluorobenzyl)-4-hydroxypiperidin-1-yl)methanone]",89,,

# The next lines start with results.
inhibition at 1 µM (human CH24H) [%],Structure (SMILES),Spontaneous alternation behavior rate (%) ([1]; 10 mg/kg orally once a day),Spontaneous alternation behavior rate (%) ([1]; 30 mg/kg orally once a day)
82,"O=C(c1ccc(F)cc1-c1ccncn1)N1CCC(O)(Cc2ccccn2)CC1 [Example 63, (4-fluoro-2-(pyrimidin-4-yl)phenyl)(4-hydroxy-4-(pyridin-2-ylmethyl)piperidin-1-yl)methanone]",,
70,"Cc1ccc(-c2ccncc2)c(C(=O)N2CCC(O)(C(C)C)CC2)c1 [Example 5, (4-hydroxy-4-isopropylpiperidin-1-yl)(5-methyl-2-(pyridin-4-yl)phenyl)methanone]",,
88,"O=C(c1cccnc1-c1ccncn1)N1CCC(O)(Cc2ccc(F)cc2)CC1 [Example 92, (4-(4-fluorobenzyl)-4-hydroxypiperidin-1-yl)(2-(pyrimidin-4-yl)pyridin-3-yl)methanone]",62,72
95,"O=C(c1cccnc1-c1ccncn1)N1CCC(O)(Cc2ccc(F)cc2F)CC1 [Example 105, (4-(2,4-difluorobenzyl)-4-hydroxypiperidin-1-yl)(2-(pyrimidin-4-yl)pyridin-3-yl)methanone]",,
93,"O=C(c1c(C(F)(F)F)n[nH]c1-c1ccncc1)N1CCC(O)(Cc2ccccc2)CC1 [Example 41, (4-benzyl-4-hydroxypiperidin-1-yl)(5-(pyridin-4-yl)-3-(trifluoromethyl)-1H-pyrazol-4-yl)methanone]",,
87,"O=C(c1ccccc1-c1cnco1)N1CCC(O)(Cc2ccccc2)CC1 [Example 82, (4-benzyl-4-hydroxypiperidin-1-yl)(2-(1,3-oxazol-5-yl)phenyl)methanone]",,
89,"O=C(c1ccccc1-c1cnco1)N1CCC(O)(Cc2ccc(F)cc2F)CC1 [Example 102, (4-(2,4-difluorobenzyl)-4-hydroxypiperidin-1-yl)(2-(1,3-oxazol-5-yl)phenyl)methanone]",,
83,"COC1(Cc2ccccc2)CCN(C(=O)c2cc(C)ccc2-c2ccncc2)CC1 [Example 59, (4-benzyl-4-methoxypiperidin-1-yl)(5-methyl-2-(pyridin-4-yl)phenyl)methanone]",,
92,"Cn1ncc(-c2ccncc2)c1C(=O)N1CCC(O)(Cc2ccccc2)CC1 [Example 32, (4-benzyl-4-hydroxypiperidin-1-yl)(1-methyl-4-(pyridin-4-yl)-1H-pyrazol-5-yl)methanone]",,
84,"O=C(c1cc(F)ccc1-c1ccncn1)N1CCC(O)(Cc2ccccn2)CC1 [Example 58, (5-fluoro-2-(pyrimidin-4-yl)phenyl)(4-hydroxy-4-(pyridin-2-ylmethyl)piperidin-1-yl)methanone]",,
92,"O=C(c1scnc1-c1ccncc1)N1CCC(O)(Cc2ccccc2)CC1 [Example 26, (4-benzyl-4-hydroxypiperidin-1-yl)(4-(pyridin-4-yl)-1,3-thiazol-5-yl)methanone]",,
90,"Cc1ccc(-c2ccncc2)c(C(=O)N2CCC(O)(CC3=NCCS3)CC2)c1 [Example 39, (4-(4,5-dihydro-1,3-thiazol-2-ylmethyl)-4-hydroxypiperidin-1-yl)(5-methyl-2-(pyridin-4-yl)phenyl)methanone]",,
90,"O=C(c1ccccc1-c1ccncn1)N1CCC(O)(Cc2ccccn2)CC1 [Example 34, (4-hydroxy-4-(pyridin-2-ylmethyl)piperidin-1-yl)(2-(pyrimidin-4-yl)phenyl)methanone]",,
89,"O=C(c1cccnc1-c1ccncc1)N1CCC(O)(Cc2ccc(F)cc2F)CC1 [Example 87, 2,4′-bipyridin-3-yl(4-(2,4-difluorobenzyl)-4-hydroxypiperidin-1-yl)methanone]",,
90,"Cc1noc(-c2ccncc2)c1C(=O)N1CCC(O)(Cc2ccccc2)CC1 [Example 2, (4-benzyl-4-hydroxypiperidin-1-yl)(3-methyl-5-(pyridin-4-yl)-1,2-oxazol-4-yl)methanone]",,
90,"O=C(c1cc(F)c(F)cc1-c1ccncn1)N1CCC(O)(Cc2ccccn2)CC1 [Example 56, (4,5-difluoro-2-(pyrimidin-4-yl)phenyl)(4-hydroxy-4-(pyridin-2-ylmethyl)piperidin-1-yl)methanone]",,
